From article PMC4929558, “A novel AhR ligand, 2AI, protects the retina from environmental stress” (Scientific Reports, 2016) come the findings set out here.

In test [1] the target is T1, human AhR protein (humanized AhR liver cytosol) (Homo sapiens, UniProt P35869).
T1 construct: human AhR expressed in liver of humanized transgenic mice, B6.Cg-Ahr^tm3.1Bra Tg (Alb-cre, Ttr-AhR)1GHP; hepatic cytosol, not purified
T1 sequence (P35869 11-848): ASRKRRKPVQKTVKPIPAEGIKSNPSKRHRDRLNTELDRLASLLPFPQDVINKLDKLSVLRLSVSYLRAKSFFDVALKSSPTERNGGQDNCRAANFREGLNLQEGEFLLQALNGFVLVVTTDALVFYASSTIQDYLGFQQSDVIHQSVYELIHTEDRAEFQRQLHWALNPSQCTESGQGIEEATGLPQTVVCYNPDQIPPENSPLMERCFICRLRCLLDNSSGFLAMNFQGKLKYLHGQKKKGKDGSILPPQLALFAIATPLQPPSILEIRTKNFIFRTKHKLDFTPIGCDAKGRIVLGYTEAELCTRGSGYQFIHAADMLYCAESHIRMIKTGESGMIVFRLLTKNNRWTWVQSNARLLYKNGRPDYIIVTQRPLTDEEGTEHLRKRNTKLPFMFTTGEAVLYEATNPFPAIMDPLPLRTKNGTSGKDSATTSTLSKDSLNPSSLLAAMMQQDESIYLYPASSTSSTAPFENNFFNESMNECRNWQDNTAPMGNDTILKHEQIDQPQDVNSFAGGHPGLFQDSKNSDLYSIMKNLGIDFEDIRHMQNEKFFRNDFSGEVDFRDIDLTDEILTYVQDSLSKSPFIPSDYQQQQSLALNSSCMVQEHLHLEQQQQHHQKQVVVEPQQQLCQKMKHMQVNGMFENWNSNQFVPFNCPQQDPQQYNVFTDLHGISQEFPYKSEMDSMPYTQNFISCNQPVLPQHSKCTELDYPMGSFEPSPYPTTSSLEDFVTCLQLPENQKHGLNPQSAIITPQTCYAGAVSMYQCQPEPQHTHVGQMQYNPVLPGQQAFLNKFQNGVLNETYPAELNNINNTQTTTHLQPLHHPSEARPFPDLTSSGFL
The test is described as follows: photoaffinity ligand competition, hepatic cytosol. It is filed as binding. The settings on record: competition with 2-azido-3-[125I]iodo-7,8-dibromodibenzo-p-dioxin (0.21 pmol, saturating), 150 μg liver protein, room temperature 20 min, then UV 402 nm.

Test [2] has as its target T2, AhR (XRE-luciferase reporter assay) (Homo sapiens, UniProt P35869).
T2 construct: with Aryl hydrocarbon receptor nuclear translocator
T2 sequence (P35869 11-848): T1 sequence (P35869 11-848)
The test is described as follows: XRE-luciferase reporter assay in cells. In kind it is cell-based. The settings on record: agonist.

Test [3] has as its target T1, human AhR protein (humanized AhR liver cytosol). The test is described as follows: photoaffinity labelling, SDS-PAGE, gamma counting. It is filed as binding. To be noted: labelled compound; covalent after UV photolysis; 0.21 pmol per tube, 150 μg liver protein.

SMILES strings stand for the structures.

Turning to `Nc1ccccc1-c1cc2ccccc2[nH]1` [2AI], the “% photoaffinity label bound” value in test [1] is recorded as 2AI was able to out-compete the photoaffinity label bound to the human AhR protein. The EC50 (as a rule, the concentration giving half of the maximal effect) in test [2] turned out to be 3.5 µM.

On to `[N-]=[N+]=Nc1cc2c(cc1I)Oc1cc(Br)c(Br)cc1O2` [PAL, 2-azido-3-[125I]iodo-7,8-dibromodibenzo-p-dioxin], for which the “photoaffinity labelling, SDS-PAGE, gamma counting” value in test [3] was “Labeled AHR bands were excised and counted using a γ counter”.
